In patent publication US12195457B2, “Aromatic ring derivative as immunoregulation and preparation method and application of aromatic ring derivative” (SHANGHAI JEMINCARE PHARMACEUTICALS CO., LTD, priority 2018, dated 2025):

Experiments:
[1] = In vivo pharmacokinetics in rats, intravenous injection and oral administration; set-up: species or system Sprague Dawley rats; conditions: rat; for AUC(0-inf) / clearance / half-life / Cmax: male, Sprague-Dawley, plasma
Experimental: In this experimental embodiment, in vivo pharmacokinetic evaluation was performed in rats by intravenous injection and oral administration.
Experimental methods and conditions: male Sprague Dawley rats were given the test compounds 1 mg/kg (solvent 5% DMSO/15% Solutol/80% Saline) by intravenous injection and 1 mg/kg (solvent 0.5% MC) by oral gavage respectively. 5 min, 15 min, 30 min, 1 hr, 2 hr, 4 hr, 6 hr, 8 hr, 24 hr after administration, blood was collected from submandibular vein, each sample was collected about 0.20 mL, and heparin sodium was used for anti coagulation. After collection, the sample was placed on ice, and the blood was centrifuged to be measured within one hour. Blood drug concentration in plasma was detected by liquid chromatography tandem mass spectrometry (LC/MS/MS), and the pharmacokinetic parameters were calculated by Phoenix WinNonlin software.

[2] = system: peripheral blood lymphocyte (PBL) count; assay: Peripheral lymphocyte lowering (PLL) in mice; assay type: in vivo, C57BL/6j mice; conditions: Mus musculus, oral, 5 hours after administration, read-out: IC50 of peripheral blood lymphocyte (PBL) count decrease
Experimental: (§1) Mice: SPF female C57BL/6j mice, weighing 19-22 g. Rats: Male Sprague-Dawley rats, weighing 200-220 g. Feeding environment: the temperature was 23±2° C., the relative humidity was 40-70%, and the lighting time was at 7:00 in the morning to 7:00 in the evening; animals were freely fed with common feed and sterilized drinking water. All animal experiments were approved by the animal ethics committee; all animal experiments were carried out in accordance with the relevant SOP requirements of animal room. Animals were reared adaptively for one week before the experiment.
(§2) Animals were administered orally with a volume of 10 mL/kg. The vehicle for administration was 0.5% DMSO+0.5% MC. Animals were anesthetized with isoflurane 5 hours after administration, and 100-150 μL of peripheral blood was collected through the eye socket in EP tubes, placed on ice. The lymphocyte count of blood analysis was detected by XT-2000i automated hematology analyzer within 30 minutes. Another 20 μL of whole blood was diluted with 40 μL of DDW, and snap frozen in liquid nitrogen, the concentration of the compounds in blood was detected.

[3] = system: peripheral blood lymphocyte (PBL) count; assay: Peripheral lymphocyte lowering (PLL) in rats; assay type: in vivo, Sprague-Dawley rats; conditions: Rattus norvegicus, oral, 5 hours after administration, read-out: IC50 of peripheral blood lymphocyte (PBL) count decrease
Experimental: as §1, §2

DNBS-induced colitis = assay: Rat colitis model induced by DNBS; assay type: in vivo, Wistar rats; conditions: DNBS rats
Description: The Wistar rat ulcerative enteritis model induced by DNBS (2, 4-dinitrobenzenesulfonic acid) is also one of the commonly used models for development of enteritis drugs. DNBS combines with intestinal tissue protein to form complete antigen, which increases vascular permeability, activates inflammatory transmitters, increases fibrinolytic activity, and makes the body produce immune response against intestinal mucosa, resulting in persistent ulcer and inflammation of intestinal mucosa in rats.
The experimental animals were Wistar rats, male, 5-6 weeks old, 140-160 g. The animals were kept in SPF room with a room temperature of 20-26° C., a humidity of 40-70%, fluorescent lamp lighting, 12 hours of lighting (08:00-20:00) and 12 hours of no lighting, with 2-5 animals in each cage (same administration group). […]
Drug treatment: 4 hours after modeling, animals were given with different concentrations of drugs or 0.5% methylcellulose by gavage, 10 mL/kg, once a day for 7 consecutive days. […] After administration, the animals were euthanized, colon tissues were collected, colon length, colon weight and ulcer area were measured, and colon injury in rats was evaluated macroscopically, so as to evaluate the therapeutic effect of the tested drugs on DNBS-induced inflammatory colitis model in rats.

[4] = system: experimental autoimmune encephalomyelitis (EAE); assay: Experimental autoimmune encephalomyelitis (EAE) in mice; assay type: in vivo, C57BL/6J mice; conditions: days 5-37
Experimental: Female C57BL/6J mice were immunized with MOG35-55 antigen emulsion. 2 hours after immunization, each animal was injected with 200 ng/100 μL PTX solution intraperitoneally. After 24 hours (the second day), the same dose of PTX solution was injected once again. On the fifth day, the animals in each group began to administer the drug, and each group was given the drug by gavage, with a dosage of 10 mL/kg, once a day for 33 consecutive days (days 5-37). During the experiment, general clinical observation was carried out twice a day, and the weight and EAE clinical scores were measured once a day after administration. The score was divided into five grades: (0. normal mice, no obvious disease; 1. tail weakness or hind limb weakness; 2. tail weakness and hind limb weakness; 3. hemiplegia of hind limbs; 4. complete paralysis of hind limbs; 5, died of EAE or euthanasia in near-death state).

[5] = cited from earlier work
[6] = intravenous administration 1 mg/kg

| AUC(0-inf) [1, 6] [ng·h/mL] | clearance [1, 6] [mL/min/kg] | half-life [1, 6] [h] | AUC(0-inf) ([1]; oral administration 1 mg/kg) [ng·h/mL] | Cmax ([1]; oral administration 1 mg/kg) [ng/mL] | half-life ([1]; oral administration 1 mg/kg) [h] | F ([1]; oral administration 1 mg/kg) [%] | IC50 [2] [nM] | IC50 [3] [nM] | SMILES | area of colonic ulcer (DNBS-induced colitis; 0.2 mg/kg by gavage once a day for 7 days) | area of colonic ulcer (DNBS-induced colitis; 1 mg/kg by gavage once a day for 7 days) | disease symptoms (EAE clinical score) ([4]; 1 mg/kg by gavage once a day) | disease symptoms (EAE clinical score) ([4]; 5 mg/kg by gavage once a day) | half-life in human body [5] [h] |
| --- | --- | --- | --- | --- | --- | --- | --- | --- | --- | --- | --- | --- | --- | --- |
| 4140 | 4.17 | 1.4 | 649 | 162 | 2.9 | 13.3 | 24.7 | 5.3 | Cc1c(CCC(=O)O)[nH]c2ccc(OCc3ccc(C4CCCC4)c(C(F)(F)F)c3)cc12 [Compound 16] | significantly reduce | significantly reduce | significantly reduce | significantly reduce | – |
| 4750 | 3.5 | 2.8 | 1190 | 184 | 3.9 | 17.4 | 18.5 | 4.1 | O=C(O)CCc1[nH]c2ccc(OCc3ccc(C4CCCC4)c(C(F)(F)F)c3)cc2c1Cl [Compound 13] | – | – | significantly reduce | – | – |
| – | – | – | – | – | – | – | – | – | CCCCCCCCc1ccc(CCC(N)(CO)CO)cc1 [FTY720, Fingolimod] | – | – | – | – | 140 to 220 |
